Several values for one entry are separate records, joined by “and”; a condition that tells them apart may be missing. Equal values may be shown once.
Legend:
[1] = biological target: T1, Coenzyme A biosynthesis bifunctional protein CoaBC (Mycobacterium tuberculosis (strain ATCC 25618 / H37Rv), UniProt P9WNZ1); experiment: Biomol Green assay for MtCoaBC inhibitor, OD650 read; type: functional
T1 sequence (P9WNZ1 whole entry): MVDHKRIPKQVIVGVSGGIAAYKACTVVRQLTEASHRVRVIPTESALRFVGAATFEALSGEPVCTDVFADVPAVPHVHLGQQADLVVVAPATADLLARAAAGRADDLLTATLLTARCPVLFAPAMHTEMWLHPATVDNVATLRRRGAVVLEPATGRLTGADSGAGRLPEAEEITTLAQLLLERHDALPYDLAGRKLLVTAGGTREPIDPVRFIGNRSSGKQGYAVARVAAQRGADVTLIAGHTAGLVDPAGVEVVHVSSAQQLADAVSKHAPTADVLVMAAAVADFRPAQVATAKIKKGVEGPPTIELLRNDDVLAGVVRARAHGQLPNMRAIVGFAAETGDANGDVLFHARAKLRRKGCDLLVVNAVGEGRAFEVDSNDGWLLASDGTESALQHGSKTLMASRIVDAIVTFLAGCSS

Proteasome subunit beta = biological target: T2, Proteasome subunit beta (Trypanosoma cruzi, UniProt O96673); experiment: Trypanosoma cruzi proteasome chymotrypsin-like activity (TcProtChymo) assay.; type: functional
T2 sequence (O96673 whole entry): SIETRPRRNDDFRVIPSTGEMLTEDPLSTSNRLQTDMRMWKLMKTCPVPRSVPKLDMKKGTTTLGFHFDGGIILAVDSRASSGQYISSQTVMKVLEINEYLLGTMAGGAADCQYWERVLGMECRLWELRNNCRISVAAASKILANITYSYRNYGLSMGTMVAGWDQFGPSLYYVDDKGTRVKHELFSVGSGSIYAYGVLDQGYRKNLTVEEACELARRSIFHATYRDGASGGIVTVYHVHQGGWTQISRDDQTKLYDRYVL

[2] = Trypanosoma cruzi proteasome luciferase counter-screen; type: functional, N/A
Histidine--tRNA ligase = biological target: T3, Histidine--tRNA ligase (Leishmania infantum, UniProt A4I591); experiment: Leishmania infantum Histidine tRNA synthetase (LdHisRS); type: functional
T3 sequence (A4I591 whole entry): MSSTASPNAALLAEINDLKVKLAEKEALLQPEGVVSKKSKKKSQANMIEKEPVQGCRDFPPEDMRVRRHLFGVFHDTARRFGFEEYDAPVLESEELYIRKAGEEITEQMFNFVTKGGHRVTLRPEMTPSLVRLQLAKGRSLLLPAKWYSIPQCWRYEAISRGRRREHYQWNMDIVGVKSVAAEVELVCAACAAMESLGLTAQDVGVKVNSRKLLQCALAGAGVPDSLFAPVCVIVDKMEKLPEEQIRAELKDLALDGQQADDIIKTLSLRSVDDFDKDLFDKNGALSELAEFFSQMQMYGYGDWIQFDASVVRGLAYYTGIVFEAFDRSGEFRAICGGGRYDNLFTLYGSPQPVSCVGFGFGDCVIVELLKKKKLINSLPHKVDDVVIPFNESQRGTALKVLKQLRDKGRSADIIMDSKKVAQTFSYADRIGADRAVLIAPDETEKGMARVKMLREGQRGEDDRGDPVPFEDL

[3] = biological target: T4, Arginase-2, mitochondrial (Homo sapiens, UniProt P78540); experiment: in vitro enzyme assay to detect the production of urea directly proportional to the activity of Arginase II; type: functional
T4 sequence (P78540 whole entry): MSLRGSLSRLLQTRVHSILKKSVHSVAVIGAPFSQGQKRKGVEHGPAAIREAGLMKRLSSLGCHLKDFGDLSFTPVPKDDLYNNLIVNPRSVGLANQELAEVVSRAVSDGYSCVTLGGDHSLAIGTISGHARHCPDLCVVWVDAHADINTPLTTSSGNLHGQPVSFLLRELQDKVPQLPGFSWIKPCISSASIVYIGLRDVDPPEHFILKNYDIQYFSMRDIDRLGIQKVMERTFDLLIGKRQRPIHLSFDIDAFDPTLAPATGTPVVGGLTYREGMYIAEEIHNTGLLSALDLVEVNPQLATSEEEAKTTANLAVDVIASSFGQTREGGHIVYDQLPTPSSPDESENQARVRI

[4] = biological target: Protein translocase subunit SecA (Escherichia coli (strain K12), UniProt P10408); experiment: Assay to Identify E. coli SecA ATPase Inhibitors; type: functional
Chain of Protein translocase subunit SecA (P10408 whole entry, the tested form may be a part): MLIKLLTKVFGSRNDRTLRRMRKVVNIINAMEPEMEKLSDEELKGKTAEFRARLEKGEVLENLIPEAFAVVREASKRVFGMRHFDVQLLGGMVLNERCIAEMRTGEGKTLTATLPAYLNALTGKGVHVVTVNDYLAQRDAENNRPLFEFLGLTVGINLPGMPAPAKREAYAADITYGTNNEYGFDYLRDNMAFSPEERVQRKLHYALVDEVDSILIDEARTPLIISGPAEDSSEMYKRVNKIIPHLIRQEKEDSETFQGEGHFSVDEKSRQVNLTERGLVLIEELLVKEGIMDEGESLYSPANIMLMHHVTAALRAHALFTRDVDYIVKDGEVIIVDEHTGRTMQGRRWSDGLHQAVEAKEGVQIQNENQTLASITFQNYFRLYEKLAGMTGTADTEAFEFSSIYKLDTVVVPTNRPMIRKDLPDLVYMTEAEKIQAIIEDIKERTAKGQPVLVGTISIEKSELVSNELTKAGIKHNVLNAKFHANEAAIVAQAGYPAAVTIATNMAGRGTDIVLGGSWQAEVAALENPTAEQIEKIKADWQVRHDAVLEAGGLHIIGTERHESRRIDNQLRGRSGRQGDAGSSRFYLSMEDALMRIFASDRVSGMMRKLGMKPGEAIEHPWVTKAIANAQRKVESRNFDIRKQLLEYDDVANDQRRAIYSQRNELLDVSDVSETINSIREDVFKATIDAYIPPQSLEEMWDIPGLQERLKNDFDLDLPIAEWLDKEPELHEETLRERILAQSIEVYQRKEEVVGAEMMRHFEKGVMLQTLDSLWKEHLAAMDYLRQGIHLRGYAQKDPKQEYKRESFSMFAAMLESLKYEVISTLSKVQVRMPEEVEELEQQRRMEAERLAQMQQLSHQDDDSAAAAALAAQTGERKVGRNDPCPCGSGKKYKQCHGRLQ

[5] = biological target: Chromo domain-containing protein 1 (Saccharomyces cerevisiae (strain ATCC 204508 / S288c) (Baker's yeast), UniProt P32657); experiment: ScCHD-1 Enzyme Inhibition Assay; type: functional
Chain of Chromo domain-containing protein 1 (P32657 whole entry, the tested form may be a part): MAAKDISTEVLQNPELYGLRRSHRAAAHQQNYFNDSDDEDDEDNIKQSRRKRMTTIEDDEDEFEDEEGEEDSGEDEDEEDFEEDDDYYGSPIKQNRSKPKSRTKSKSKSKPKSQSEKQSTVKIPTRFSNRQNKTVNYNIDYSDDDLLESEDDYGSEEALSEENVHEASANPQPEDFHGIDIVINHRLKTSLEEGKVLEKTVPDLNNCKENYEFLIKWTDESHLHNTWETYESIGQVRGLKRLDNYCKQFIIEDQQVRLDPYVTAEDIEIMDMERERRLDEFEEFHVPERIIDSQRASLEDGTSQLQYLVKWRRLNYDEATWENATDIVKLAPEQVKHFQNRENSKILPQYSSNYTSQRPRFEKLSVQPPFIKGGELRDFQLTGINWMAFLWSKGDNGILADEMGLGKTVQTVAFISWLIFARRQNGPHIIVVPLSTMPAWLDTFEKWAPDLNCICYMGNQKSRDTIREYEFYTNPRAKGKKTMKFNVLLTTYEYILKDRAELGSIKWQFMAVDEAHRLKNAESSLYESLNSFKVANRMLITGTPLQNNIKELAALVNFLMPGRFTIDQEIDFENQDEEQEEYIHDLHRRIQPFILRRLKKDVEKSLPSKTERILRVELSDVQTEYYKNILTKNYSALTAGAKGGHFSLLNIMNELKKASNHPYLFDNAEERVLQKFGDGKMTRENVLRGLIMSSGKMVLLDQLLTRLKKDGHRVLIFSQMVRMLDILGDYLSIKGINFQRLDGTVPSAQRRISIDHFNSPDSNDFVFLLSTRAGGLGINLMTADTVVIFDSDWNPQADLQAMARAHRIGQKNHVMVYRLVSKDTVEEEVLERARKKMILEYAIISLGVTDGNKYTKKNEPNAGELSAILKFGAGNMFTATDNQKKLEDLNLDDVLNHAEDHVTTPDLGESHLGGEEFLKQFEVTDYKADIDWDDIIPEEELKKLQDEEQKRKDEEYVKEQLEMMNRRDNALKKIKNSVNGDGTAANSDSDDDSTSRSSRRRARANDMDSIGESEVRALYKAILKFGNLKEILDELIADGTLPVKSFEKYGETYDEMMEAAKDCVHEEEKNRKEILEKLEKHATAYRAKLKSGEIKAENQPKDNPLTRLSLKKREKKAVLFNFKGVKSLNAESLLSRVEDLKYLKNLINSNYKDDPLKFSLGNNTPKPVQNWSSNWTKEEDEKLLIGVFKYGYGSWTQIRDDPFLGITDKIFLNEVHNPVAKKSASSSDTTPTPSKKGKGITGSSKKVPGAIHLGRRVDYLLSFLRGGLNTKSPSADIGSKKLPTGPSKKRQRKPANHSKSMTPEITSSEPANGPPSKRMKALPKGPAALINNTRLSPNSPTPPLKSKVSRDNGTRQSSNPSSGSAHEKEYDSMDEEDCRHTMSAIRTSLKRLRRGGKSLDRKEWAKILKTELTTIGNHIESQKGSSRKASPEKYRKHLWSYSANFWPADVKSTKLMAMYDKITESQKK

Lysine--tRNA ligase = Lysine--tRNA ligase (Plasmodium falciparum (isolate 3D7), UniProt Q8IDJ8); experiment: Pf-KRS-1 (Lysyl-RNA Synthetase-1, KRS-1, cytosolic KRS) from Plasmodium falciparum. Inhibitor assay, 384 well plate, luminescence read.; type: functional
Chain of Lysine--tRNA ligase (Q8IDJ8 whole entry): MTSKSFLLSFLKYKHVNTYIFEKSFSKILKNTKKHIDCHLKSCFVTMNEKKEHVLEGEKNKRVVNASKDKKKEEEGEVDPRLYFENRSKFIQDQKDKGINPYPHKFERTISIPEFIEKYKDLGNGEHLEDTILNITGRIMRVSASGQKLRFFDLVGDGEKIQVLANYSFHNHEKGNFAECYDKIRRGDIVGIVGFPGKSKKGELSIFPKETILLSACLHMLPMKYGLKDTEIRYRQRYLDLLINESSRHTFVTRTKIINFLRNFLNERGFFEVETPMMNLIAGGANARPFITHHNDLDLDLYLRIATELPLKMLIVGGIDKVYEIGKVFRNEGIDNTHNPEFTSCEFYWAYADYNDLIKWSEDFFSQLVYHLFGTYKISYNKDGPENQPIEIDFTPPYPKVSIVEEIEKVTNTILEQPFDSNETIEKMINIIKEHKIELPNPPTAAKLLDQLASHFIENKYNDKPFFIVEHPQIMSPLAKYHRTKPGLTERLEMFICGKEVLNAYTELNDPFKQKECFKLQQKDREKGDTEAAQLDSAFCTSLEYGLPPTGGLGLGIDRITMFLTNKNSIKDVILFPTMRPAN

Plasmodium falciparum = experiment: Plasmodium falciparum sporozoite viability assay; type: functional, organism-based; settings: for IC50: Plasmodium falciparum
[6] = biological target: T5, Ubiquitin-activating enzyme e1, putative (Leishmania donovani (strain BPK282A1), UniProt E9BSI1); experiment: Leishmania donovani Ubiquitin Activating Enzyme (LdE1); type: functional
T5 sequence (E9BSI1 whole entry): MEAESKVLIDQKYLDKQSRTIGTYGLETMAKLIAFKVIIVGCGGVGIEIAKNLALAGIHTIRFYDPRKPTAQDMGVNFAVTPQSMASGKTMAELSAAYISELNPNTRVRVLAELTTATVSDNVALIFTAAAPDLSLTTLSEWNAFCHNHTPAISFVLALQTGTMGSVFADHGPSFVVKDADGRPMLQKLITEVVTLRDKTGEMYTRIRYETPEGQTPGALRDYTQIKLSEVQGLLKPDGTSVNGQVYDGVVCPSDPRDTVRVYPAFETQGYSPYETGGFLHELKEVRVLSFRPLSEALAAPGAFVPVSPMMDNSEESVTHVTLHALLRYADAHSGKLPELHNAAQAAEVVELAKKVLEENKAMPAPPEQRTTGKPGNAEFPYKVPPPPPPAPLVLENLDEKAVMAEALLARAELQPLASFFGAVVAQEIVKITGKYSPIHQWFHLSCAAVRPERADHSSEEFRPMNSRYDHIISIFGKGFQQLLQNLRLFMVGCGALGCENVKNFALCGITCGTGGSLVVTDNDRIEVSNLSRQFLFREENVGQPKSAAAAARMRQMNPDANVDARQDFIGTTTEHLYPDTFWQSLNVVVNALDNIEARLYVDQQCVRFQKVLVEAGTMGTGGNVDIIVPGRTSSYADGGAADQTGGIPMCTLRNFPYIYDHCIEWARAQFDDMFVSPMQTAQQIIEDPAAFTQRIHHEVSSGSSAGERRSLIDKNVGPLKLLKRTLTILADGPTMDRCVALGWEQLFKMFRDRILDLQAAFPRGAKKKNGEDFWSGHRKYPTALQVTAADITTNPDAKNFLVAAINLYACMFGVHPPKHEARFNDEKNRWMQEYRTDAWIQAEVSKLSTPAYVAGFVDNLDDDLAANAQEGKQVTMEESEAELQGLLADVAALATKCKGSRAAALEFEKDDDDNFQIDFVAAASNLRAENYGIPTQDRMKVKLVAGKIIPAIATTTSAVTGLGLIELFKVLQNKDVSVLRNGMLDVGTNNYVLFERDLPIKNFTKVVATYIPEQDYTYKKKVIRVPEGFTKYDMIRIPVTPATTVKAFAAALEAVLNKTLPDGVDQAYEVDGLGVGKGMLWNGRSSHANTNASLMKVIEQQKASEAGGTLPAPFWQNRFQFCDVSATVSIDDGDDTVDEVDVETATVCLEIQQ

[7] = biological target: Polyketide synthase Pks13 (Mycobacterium tuberculosis (strain ATCC 25618 / H37Rv), UniProt I6X8D2); experiment: Mycobacterium tuberculosis Polyketide synthase 13 Thioesterase (PKS13); type: functional
Chain of Polyketide synthase Pks13 (I6X8D2 whole entry): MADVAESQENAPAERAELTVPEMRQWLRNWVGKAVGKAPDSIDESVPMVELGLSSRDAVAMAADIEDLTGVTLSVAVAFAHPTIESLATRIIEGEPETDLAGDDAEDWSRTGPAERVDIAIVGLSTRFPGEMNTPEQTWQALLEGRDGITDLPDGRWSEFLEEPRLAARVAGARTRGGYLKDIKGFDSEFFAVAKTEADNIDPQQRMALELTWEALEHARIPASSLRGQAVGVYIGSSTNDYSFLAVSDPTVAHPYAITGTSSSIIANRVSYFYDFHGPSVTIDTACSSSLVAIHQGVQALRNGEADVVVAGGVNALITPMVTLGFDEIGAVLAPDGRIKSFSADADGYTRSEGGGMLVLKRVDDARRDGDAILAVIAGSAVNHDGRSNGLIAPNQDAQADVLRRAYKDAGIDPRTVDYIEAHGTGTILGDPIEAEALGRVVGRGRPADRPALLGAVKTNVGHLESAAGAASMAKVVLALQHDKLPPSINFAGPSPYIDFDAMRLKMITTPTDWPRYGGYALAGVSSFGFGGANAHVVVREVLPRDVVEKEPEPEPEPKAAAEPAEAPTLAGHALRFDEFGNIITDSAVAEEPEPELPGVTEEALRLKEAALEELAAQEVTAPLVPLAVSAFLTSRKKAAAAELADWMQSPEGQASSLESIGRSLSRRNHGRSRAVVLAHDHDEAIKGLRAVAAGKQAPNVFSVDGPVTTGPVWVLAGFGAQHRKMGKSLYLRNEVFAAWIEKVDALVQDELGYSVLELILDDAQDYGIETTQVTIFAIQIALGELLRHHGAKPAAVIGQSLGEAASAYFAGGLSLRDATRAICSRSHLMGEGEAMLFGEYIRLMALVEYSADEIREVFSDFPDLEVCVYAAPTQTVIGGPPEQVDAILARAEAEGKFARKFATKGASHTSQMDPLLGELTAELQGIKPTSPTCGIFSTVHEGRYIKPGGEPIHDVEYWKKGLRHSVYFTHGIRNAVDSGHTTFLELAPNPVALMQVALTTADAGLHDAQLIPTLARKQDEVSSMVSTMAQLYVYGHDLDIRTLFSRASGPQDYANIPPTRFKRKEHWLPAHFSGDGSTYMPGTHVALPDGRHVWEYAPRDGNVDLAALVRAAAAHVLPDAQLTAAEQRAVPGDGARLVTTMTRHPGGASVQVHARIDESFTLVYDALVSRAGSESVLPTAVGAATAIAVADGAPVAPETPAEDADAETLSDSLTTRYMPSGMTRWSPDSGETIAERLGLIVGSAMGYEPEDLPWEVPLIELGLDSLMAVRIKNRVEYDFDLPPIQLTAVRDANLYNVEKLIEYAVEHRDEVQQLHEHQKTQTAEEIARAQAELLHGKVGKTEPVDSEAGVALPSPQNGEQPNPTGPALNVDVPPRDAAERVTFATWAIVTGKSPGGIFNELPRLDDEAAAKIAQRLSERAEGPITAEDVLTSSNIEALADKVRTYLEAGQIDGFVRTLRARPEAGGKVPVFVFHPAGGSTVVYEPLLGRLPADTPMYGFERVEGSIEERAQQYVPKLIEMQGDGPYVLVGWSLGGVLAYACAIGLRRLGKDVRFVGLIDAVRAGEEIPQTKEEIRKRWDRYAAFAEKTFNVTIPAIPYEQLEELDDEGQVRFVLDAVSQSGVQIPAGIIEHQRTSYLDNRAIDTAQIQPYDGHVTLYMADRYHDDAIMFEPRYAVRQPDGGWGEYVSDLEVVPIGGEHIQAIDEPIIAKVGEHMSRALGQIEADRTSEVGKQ

SMILES: Cc1ccc(N(C)C2CCN(C(=O)CCc3ccco3)CC2)nn1
- IC50 [1]: > 30.2 µM
- IC50 (Proteasome subunit beta): 12.8 µM and 16.7 µM
- pIC50 [2]: < 4
- IC50 (Histidine--tRNA ligase): 41.4 µM and 49.7 µM

SMILES: O=C(Cn1ccc2c(Cl)cccc21)N1CCC2(CC1)OCCO2
- IC50 [3]: > 100 µM

SMILES: COCCNC(=O)c1cn(C(C)(C)C)c2ncccc12
- IC50 [4]: > 100 µM

SMILES: CC1=Nc2c(c(=O)[nH]n2C2CCOCC2)C(c2cccc(Br)c2)S1 (stereo unspecified)
- IC50 [3]: > 100 µM

SMILES: COc1ccccc1CN1CCC2(CC1)CC(Oc1ccccn1)CO2 (stereo unspecified)
- IC50 [3]: > 100 µM

SMILES: COc1ccc2c(c1)OCC(CNC(=O)c1ccncc1)C2 (stereo unspecified)
- IC50 [3]: > 100 µM
- IC50 [5]: > 29.5 µM

SMILES: CCC(C(=O)NC)N(c1cccc(C)c1)S(C)(=O)=O (stereo unspecified)
- IC50 [3]: > 100 µM

SMILES: COc1cccc([C@@H]2CN(C(=O)c3ccc(C)cc3O)C[C@H]2C(=O)O)c1
- IC50 [3]: > 100 µM

SMILES: CCNC(=O)Nc1ccc2c(ccn2CC(=O)N(CC)CC)c1
- IC50 [4]: > 100 µM

SMILES: CN(C)C(=O)[C@@H]1CCO[C@@H]2CCN(CCc3ccccc3)C[C@@H]21
- IC50 (Lysine--tRNA ligase): > 50.1 µM
- IC50 [3]: > 100 µM

SMILES: CC(C)c1n[nH]c(C(=O)Nc2cc[nH]n2)c1Br
- pIC50 (Plasmodium falciparum): 7.564
- IC50 (Plasmodium falciparum): 0.0186 µM
- IC50 (Proteasome subunit beta): 5.88 µM and 6.65 µM
- pIC50 [2]: 4.666 and 4.69

SMILES: Cc1nc(NCC2CC2)nc2c1COCC21CCN(C)C1 (stereo unspecified)
- IC50 [3]: > 100 µM

SMILES: Cc1nc(C)c(C(=O)OCCNc2ncccc2C#N)s1
- IC50 [6]: > 100 µM
- IC50 (Proteasome subunit beta): 7.22 µM and 8.26 µM
- pIC50 [2]: 4.56 and 4.563

SMILES: Cc1[nH]ccc1C(=O)N1CCCC(c2nccn2Cc2cscn2)C1 (stereo unspecified)
- IC50 [3]: > 100 µM

SMILES: CN1CCCC1c1ccc(C(=O)N2CCc3ccccc3C2)s1 (stereo unspecified)
- pIC50 (Plasmodium falciparum): 6.857
- IC50 (Plasmodium falciparum): 0.121 µM
- IC50 (Proteasome subunit beta): 10.3 µM and 8.37 µM
- pIC50 [2]: 4.715 and 4.643

SMILES: COCCN1C[C@@H]2CCCO[C@@H]2[C@H](N(C)Cc2ccco2)C1
- IC50 [3]: > 100 µM

SMILES: CCn1c(NCc2ccco2)nc2c(C)nn(C)c2c1=O
- IC50 [3]: > 100 µM

SMILES: CN(Cc1ccccn1)C1COC2(CCN(Cc3cccnc3)CC2)C1 (stereo unspecified)
- IC50 [3]: > 100 µM

SMILES: O=C1CSC(c2ccsc2)c2c(n(C3CCOCC3)[nH]c2=O)N1 (stereo unspecified)
- IC50 [3]: > 100 µM

SMILES: CNC(=O)[C@H]1C[C@@H]2CN(C(=O)c3ccco3)C[C@@H]2N1S(C)(=O)=O
- IC50 [3]: > 100 µM

SMILES: CC(O)CNCc1ccc(OCc2ccc3c(c2)OCCO3)cc1.Cl (stereo unspecified)
- pIC50 (Plasmodium falciparum): 6.937
- IC50 (Plasmodium falciparum): 0.0903 µM
- IC50 (Proteasome subunit beta): 9.3 µM and 9.77 µM
- pIC50 [2]: 4.507 and 4.501

SMILES: O=C(CO)N1CCC(c2cncc(-c3cccc(Cl)c3)n2)CC1
- IC50 [1]: > 30.2 µM
- IC50 [3]: > 100 µM

SMILES: Cc1cc(N2CCN(CC(=O)N(C)C)CC2)nc(-c2ccncc2)n1
- IC50 (Proteasome subunit beta): > 100 µM
- pIC50 [2]: < 4
- IC50 (Histidine--tRNA ligase): > 100 µM

SMILES: Cc1cc(S(=O)(=O)Nc2cccc(-n3cccc3)c2)sc1C(=O)O
- IC50 [1]: > 30.2 µM
- IC50 (Proteasome subunit beta): 16.4 µM and 18.9 µM
- pIC50 [2]: < 4
- IC50 [7]: 2.38 µM and 0.803 µM

Source: ChEMBL document CHEMBL3988442, “University of Dundee, Small-Polar-MMV Screening Library” (2021)
